Reference: the OPERA property sets (Mansouri et al. 2018)
Where a SMILES comes first, the peptide text is derived from it.

| SMILES | logP |
| --- | --- |
| CC(C)CC(N)C(=O)NC(CC(C)C)C(=O)NC(CC(C)C)C(=O)NC(Cc1ccccc1)C(=O)O (configuration not stated) (H-LLLF-OH; configuration not given here) | 0.24 |
| CNC1=NS(=O)N=C1NCCSCc1ccc(CN(C)C)o1 (configuration not stated) | 0.89 |
| CC(C)NC(=NC#N)NS(=O)(=O)c1cnccc1NC1CC1 | 0.01 |
| O=C(O)c1ccccc1NC(=O)c1c(O)cccc1O | 3.52 |
| CCC(C)C(NC(=O)C1CCCN1)C(=O)O (stereo not drawn) (H-Pro-Ile-OH; configuration not given here) | -2.56 |
| CCOC(=O)C1=C(C)NC(C)=C(C(=O)OCC)C1c1cccc2c1OCO2 | 4.32 |
| CC(C)C[C@H](NC(=O)[C@@H](N)CC(C)C)C(=O)O | -1.47 |
| c1ccc2c(c1)OCC(Cc1nc3ccccc3[nH]1)O2 (configuration not stated) | 3.29 |
| CCOc1ccc(NC(=O)OC(C)c2ccccc2)cc1OCC (configuration not stated) | 3.56 |
| CC(C)(C)[N+]([O-])=Cc1ccc(Cl)cc1 | 2.4 |
| C=C1C=CCC(C)=CCC1 | 4.17 |
| COc1ccccc1CNC1CCCNC1c1ccccc1 (configuration not stated) | 3.1 |
| Cc1cn(C2C=CC(COP3(=O)OCc4cc(Cl)ccc4O3)O2)c(=O)[nH]c1=O (configuration not stated) | 0.88 |
| O=C1CNC(=O)C(Cc2c[nH]c3ccccc23)N1 (configuration not stated) | 0.07 |
| COc1ccc(-c2ccsc2)cc1CNC1CCCNC1c1ccccc1 (configuration not stated) | 4.8 |
| N#Cc1[nH]cc(-c2ccc(Cl)cc2)c1N1CCOCC1 | 3.5 |
| CC(=O)OC(C)(C)C1CCC2(C)CCCC(CO)C2C1 (configuration not stated) | 3.49 |
| CC(Cl)C(=O)Nc1ccc(C2=NNC(=O)CC2C)cc1 (configuration not stated) | 1.4 |
| CNc1ccc2cc3ccc4c(c3nc2c1CO)COCN4S(C)(=O)=O | 1.2 |
| Cc1cnc2ccc3c(nc(N)n3C)c2n1 | 1.01 |
| CCOC(=O)NNc1ccccc1 | 1.22 |
| COC(=O)C(C)=CC1C(C(=O)OCc2ccccc2)C1(C)C (configuration not stated) | 4.4 |
| CCCC(=O)OC1Cc2c(O)cc(O)cc2OC1c1ccc(O)c(O)c1 (configuration not stated) | 2.47 |
| CC(C)CC(N)C(=O)NC(Cc1ccccc1)C(=O)O (stereo not drawn) (H-Leu-Phe-OH; configuration not given here) | -1.15 |

| SMILES | logP |
| --- | --- |
| CN1CC(O)N(C(=O)NC2CCCC2)C1=O (configuration not stated) | 1.47 |
| OCCCCCCNc1ncnc2c1ncn2C1OC(CO)C(O)C1O (configuration not stated) | 0.23 |
| CC(C)CC(NC(=O)C(N)CO)C(=O)O (stereo not drawn) (H-Ser-Leu-OH; configuration not given here) | -2.49 |
| CCCCCCC(=O)Oc1ccc2c3c1OC1C(OS(=O)(=O)O)C=CC4C(C2)N(C)CCC341 (configuration not stated) | 0.36 |
| CC(C)NC(=NC#N)NS(=O)(=O)c1cnccc1NC1CCCC1 | 0.98 |
| Cc1cc2c(s1)Nc1ccccc1N=C2N1CCN(C)CC1 | 3 |
| Cc1ccc(-n2nnnc2N)cc1Cl | 1.89 |
| O=c1ccc(/C=C/c2ccc(-n3cnc4c3CCCC4)cc2)n[nH]1 | 2.47 |
| Brc1c2ccccc2c(Br)c2ccccc12 | 6.29 |
| C=CC(=O)OCC(COC(=O)C=C)(COC(=O)C=C)COC(=O)C=C | 2.11 |
| OCC1OC(n2cnc3c(NCCc4ccccc4)ncnc32)C(O)C1O (configuration not stated) | 1.55 |
| C[N+](C)([O-])CCCC(c1ccccc1)c1ccccc1 | 1.45 |
| CC(C)n1cccc(O)c1=O | 0.79 |
| COc1ccc(CCNCC(O)COc2ccc(-c3nc(C)c(Cl)[nH]3)cc2)cc1OC (configuration not stated) | 3.9 |
| CN(c1nc2ccccc2s1)C1CCN(CCCCOc2ccc(F)cc2)CC1 | 5.37 |
| Nc1n[n+]([O-])c2ccccc2[n+]1[O-] | -0.3 |
| Clc1ccc(C2(Cn3cncn3)OCC3(CCC4OC4C3)CO2)c(Cl)c1 (configuration not stated) | 1.87 |
| COCC(O)CN(C(C)=O)c1c(I)c(C(=O)NCC(O)CO)c(I)c(C(=O)NCC(O)CO)c1I (configuration not stated) | -2.42 |
| CC(C)CCNc1ncnc2c1ncn2C1OC(CO)C(O)C1O (configuration not stated) | 1.6 |
| CCOC(=O)C1=C(C)NC(C)=C(C(=O)OC(C)C)C1c1cccc2c1OCO2 (configuration not stated) | 4.71 |
| CCCCC(=O)OCOCC(=O)C1(O)Cc2c(O)c3c(c(O)c2C(OC2CC(N(C)C)C(O)C(C)O2)C1)C(=O)c1c(OC)cccc1C3=O (configuration not stated) | 2.82 |
| CCOP(=O)(OCC)C(C)(C)[N+]([O-])=Cc1c(OC)cc(OC)cc1OC | 1.03 |
| Cc1ccc(CO)c(C=NNC(=O)c2ccncc2)c1O | 2.16 |
| NC(=O)c1cccc(Cn2cccn2)c1 | 0.71 |

| SMILES | logP |
| --- | --- |
| COC(=O)c1[nH]cc(-c2ccc(Cl)cc2)c1N1CCOCC1 | 3.5 |
| CC(=O)c1cc2ccc3cccc4ccc(c1)c2c34 | 4.29 |
| OCCN1CCN(CCn2nnc3ccccc32)CC1 | -0.05 |
| COc1ccc(CNc2[nH]cnc3ncnc2-3)cc1 | 2.17 |
| CC(C)CC(NC(=O)C(CC(C)C)NC(=O)C(CC(C)C)NC(=O)C1CCCN1)C(=O)O (configuration not stated) (H-PLLL-OH; configuration not given here) | -1.06 |
| NC1=NCC(CN2CCN(c3ccccc3F)CC2)O1 (configuration not stated) | 1.06 |
| C=CC(=O)OCCOCCO | -0.3 |
| CC(C)CC(N)C(=O)NC(CC(C)C)C(=O)NC(CC(C)C)C(=O)NC(C(=O)O)C(C)C (configuration not stated) (H-LLLV-OH; configuration not given here) | -0.51 |
| CCOc1cc2ncnc(Nc3ccc(F)cc3)c2cc1OCC | 3.73 |
| Clc1cccc(N2CCN(CCCOn3nnc4ccccc43)CC2)c1 | 4.2 |
| CC(NC(=O)C(Cc1ccccc1)NC(=O)C(N)Cc1c[nH]c2ccccc12)C(=O)O (stereo not drawn) (H-Trp-Phe-Ala-OH; configuration not given here) | -1 |
| CCCCC(=O)C(CCCCOc1cccc(F)c1)n1cncn1 (configuration not stated) | 3.42 |
| O=C1Nc2ccc(Cl)cc2C(c2ccccc2F)=NC1O (configuration not stated) | 1.81 |
| CC=C(C)C(=O)OCC1CCCC2(C)CCC(C(C)(C)O)CC12 (configuration not stated) | 5.27 |
| CC(C)CC(NC(=O)C(Cc1ccccc1)NC(=O)C(N)C(C)C)C(=O)NC(C(=O)O)C(C)O (configuration not stated) (H-VFLT-OH; configuration not given here) | -1.32 |
| Cc1coc2cc3oc(=O)cc(C)c3cc12 | 2.76 |
| COC(=O)C(C)=CC1C(C(=O)OCc2cccc(Cc3ccccc3)c2)C1(C)C (configuration not stated) | 6.41 |
| CC(=O)OC(C)(C)C1CCC2(C)CCCC(=O)C2C1 (configuration not stated) | 3.2 |
| Cc1cccc(Nc2ccncc2S(=O)(=O)NC(=NC#N)NC(C)C)c1 | 1.86 |
| CC(C)NCC(O)COc1ccccc1C1CCCCC1 (configuration not stated) | 3.68 |
| O=C1NC(c2ccccc2)(c2ccccc2)C(=O)N1CO | 2.23 |
| Cc1ccc(CO)c(C=NNC(=O)c2cccc(Cl)c2)c1O | 3.83 |
| CC(=O)OCC1OC(n2cc(F)c(=O)[nH]c2=O)C(OC(C)=O)C1OC(C)=O (configuration not stated) | -0.25 |
| CC(C)(C)n1cc(C(=O)O)c(=O)c2cc(F)c(N3CC4CC3CN4)nc21 (configuration not stated) | -0.41 |

| SMILES | logP |
| --- | --- |
| CCNC(=O)NS(=O)(=O)c1cnccc1NC1CCCCCCC1 | 3.57 |
| Cc1c(C)c2occc2c2oc(=O)ccc12 | 2.84 |
| Cc1nc2c3c(c(C(=O)N(C)C)cn2c1C)CCC(c1ccccc1F)O3 (configuration not stated) | 3.6 |
| O=[N+]([O-])c1cccc(CNc2ncnc3nc[nH]c23)c1 | 2.03 |
| COc1cccc2c1C(=O)c1c(O)c3c(c(O)c1C2=O)CC(O)(C(=O)CO)CC3OC1CC(N(C)C)C(O)C(C)O1 (configuration not stated) | 1.28 |
| CC(=O)Oc1ccccc1C(=O)OC1Cc2c(O)cc(O)cc2OC1c1ccc(O)c(O)c1 (configuration not stated) | 2.87 |
| Cc1ccc(OC(=O)CNC(=O)c2ccccc2)c(C)c1 | 3.4 |
| CN1CC(O)N(C(=O)Nc2ccccc2)C1=O (configuration not stated) | 1.44 |
| COc1ccccc1CNc1ncnc2nc[nH]c12 | 2.31 |
| CC(C)NC(=NC#N)NS(=O)(=O)c1cnccc1NC1CCCCCCCCCCC1 | 4.51 |
| CCOC(=O)C1=C(C)NC(C)=C(C(=O)OC)C1C (configuration not stated) | 3.27 |
| C[N+](C)([O-])C(c1ccccc1)c1ccccc1 | 0.82 |
| CCCCCCNC1=NS(=O)N=C1NCCSCc1ccc(CN(C)C)o1 (configuration not stated) | 3.46 |
| CC(C)CCCCCNc1[nH]cnc2ncnc1-2 | 4.16 |
| Cc1cccc2c1OP(=O)(OCC1C=CC(n3cc(C)c(=O)[nH]c3=O)O1)OC2 (configuration not stated) | 0.71 |
| CC(=O)C(Cc1ccccc1)=C(C)O | 1.89 |
| COc1ccc(CCNCC(O)COc2ccc(-c3ncco3)cc2)cc1OC (configuration not stated) | 2.6 |
| Cc1cccc(C)c1OCCN(C)C | 2.74 |
| CCCCOc1cccc2nc(N)nc(N)c12 | 2.81 |
| CC(=O)Nc1cc(NCC(C)O)c(Cl)cc1N=Nc1ccc([N+](=O)[O-])cc1Cl (configuration not stated) | 4 |
| CC(C)CC(NC(=O)C(N)Cc1ccc(O)cc1)C(=O)NC(C(=O)O)C(C)C (stereo not drawn) (H-Tyr-Leu-Val-OH; configuration not given here) | -1.45 |
| O=C(O)CCCCCON=C(c1cncnc1)c1cccc(C(F)(F)F)c1 | 3.65 |
| CCCN(CCC)C1CCc2c(O)cccc2C1C (configuration not stated) | 4.06 |
| COC(=O)C(C)NP(=O)(OCC1C=CC(n2cc(C)c(=O)[nH]c2=O)O1)Oc1ccc(C(F)(F)F)cc1 (configuration not stated) | 1.57 |

| SMILES | logP |
| --- | --- |
| OCCCNc1[nH]cnc2ncnc1-2 | 0.11 |
| CC(CO)NC(=O)Cn1ccnc1[N+](=O)[O-] (configuration not stated) | -1.02 |
| NC1=NCC(CN2CCN(c3ccc([N+](=O)[O-])cc3)CC2)O1 (configuration not stated) | 1.23 |
| CC(=NNC(=O)c1ccc(O)cc1)c1cnccn1 | 1.9 |
| N#Cc1cccc(Cn2cccn2)c1 | 1.74 |
| CCCCCN(C)CC(=O)Nc1c(C)cccc1C | 3.2 |
| Clc1ccc(-c2cnn(-c3ccccn3)c2)cc1 | 4.3 |
| CC(=NNC(=S)N(C)C)c1cc(C)ccc1O | 2.26 |
| Clc1ccc(N2CCN(CCn3nc4ccccc4n3)CC2)cc1 | 4.05 |
| COC(=O)Cc1ccc(O)cc1 | 1.63 |
| CCC(C)C(NC(=O)C(N)Cc1ccccc1)C(=O)NC(C(=O)O)C(C)O (stereo not drawn) (H-Phe-Ile-Thr-OH; configuration not given here) | -1.95 |
| O=S(=O)(NC(=S)NC1CCCCC1)c1cnccc1NC1CCCCCC1 | 4.71 |
| CC1OC(OC2C(C)OC(OC3C(C)OC(OC4CCC5(C)C(CCC6C5CCC5(C)C(C7=CC(=O)OC7)C(OC=O)CC65O)C4)CC3OC=O)CC2OC=O)CC(OC=O)C1OC=O (configuration not stated) | 3.16 |
| CC(C)CC(Nc1ccc([N+](=O)[O-])cc1[N+](=O)[O-])C(=O)O (configuration not stated) | 3.25 |
| O=C1N=C(N2CCOCC2)CN1Cc1ccc(I)cc1 | 1.7 |
| CC(C)(C)c1ccc(C(CCN2CCCC2)c2ccccc2)cc1 (configuration not stated) | 6.72 |
| NC(=S)NN=C(c1ccccc1)c1ccccn1 | 1.92 |
| CCN(CC)CCNC(=O)c1c(C)cccc1C | 2.22 |
| CC(=O)OC1C(C)OC(n2cc(F)c(=O)[nH]c2=O)C1OC(C)=O (configuration not stated) | -0.02 |
| Cc1cc(CCCCCCCOc2ccc(C3=NCCO3)cc2)on1 | 4.79 |
| NC1=NCC(CN2CCC(Cc3ccccc3)CC2)O1 (configuration not stated) | 2.38 |
